How the values were obtained:
[1] = tested on: ^125I-BMQ-metabolizing CYP isoenzymes (pooled MLMs); experiment: Inhibition of ^125I-BMQ metabolism by specific CYP inhibitors and mequitazine in pooled MLMs; settings: for percentage of metabolites produced from ^125I-BMQ: 37°C, 15 min; for inhibition at 15 min, 10 µM: mouse, pooled mouse liver microsomes, pH 7.4, probe ^125I-BMQ
Experimental: These specific inhibitors were used to identify the CYPs involved in the biotransformation of ^125I-BMQ. The inhibitors and mequitazine (self-inhibitor) were dissolved at a concentration of 10 μM (0.8% [v/v] final concentration DMSO).
Samples were incubated at 37°C for 15 min with gentle shaking, and the reaction was stopped by addition of 100 µL of ethanol and centrifugation at 18,000 g for 5 min. The final supernatant was analyzed by TLC using methanol/acetic acid at a 100:1 ratio. The percentages of ^125I-BMQ metabolites in each sample were then calculated (n = 3).

[2] = tested on: CYP (pooled mouse liver microsomes, MLMs); experiment: NADPH-mediated metabolism of ^125I-BMQ in pooled mouse liver microsomes, TLC analysis; type: in vitro ADME; settings: 37°C, increase with reaction time
Experimental: Animal studies were approved by the Animal Care Committee at Kanazawa University (AP-173851) and conducted in accordance with international standards for animal welfare and institutional guidelines. For preparation of pooled mouse liver microsomes (MLMs), three 6-week-old male ddY mice (Japan SLC, Tokyo, Japan) were euthanized under anesthesia using isoflurane. The liver of each mouse was removed and weighed. After adding 3 mL of Krebs-Ringer’s phosphate buffer (pH 7.4) per gram of liver, the livers were pooled and homogenized using an ultrasonic homogenizer (SONIFIER250, Branson, MO, United States). The homogenate was centrifuged for 20 min at 9,000 g, and the supernatant was centrifuged for 60 min at 100,500 g. […] The resulting precipitate was obtained as microsomes, and the protein content was determined according to the bicinchoninic acid method ([Smith et al., 1985]). […]
To analyze CYP-mediated metabolism of ^125I-BMQ, nicotinamide adenine dinucleotide phosphate (NADPH) was used as an energy source for CYP. […] The samples were then centrifuged at 18,000 g for 5 min, and the supernatant of each sample was analyzed by thin layer chromatography (TLC). […] After development and complete drying, the TLC plates were cut into 21 fractions, and the radioactivity associated with each fraction was measured using a γ-ray counter (AccuFLEX γ 7000, Aloka, Tokyo, Japan). […]

[3] = Biological distribution of ^125I-BMQ in normal mice; type: in vivo, mouse; settings: tail vein injection
Experimental: ^125I-BMQ was prepared to a specific radioactivity of 185 kBq/mL by adding saline. A total of 20 fasting 6-week-old male ddY mice were injected with ^125I-BMQ into the tail vein (18.5 kBq/100 µL/mouse), and after 2, 10, 30, 60, and 120 min, four mice each were euthanized under isoflurane, and blood, brain, thyroid, lung, heart, liver, gallbladder, stomach, pancreas, spleen, intestine, kidney, and urine tissue were collected. The tissue was weighted and the radioactivity was measured using a γ-ray counter to calculate the injected dose percent (%ID) or injected dose percent per gram of tissue (%ID/g).

[4] = Metabolism of ^125I-BMQ in vivo: TLC analysis of radioactive products in bile; design: species or system mouse
Experimental: ^125I-BMQ was prepared to a specific radioactivity of 10 MBq/mL by adding saline and injected via tail vein into three mice (2.0 MBq/200 µL/mouse). […] Radioactive products in the bile were analyzed by TLC using chloroform/acetic acid/H2O at a ratio of 60:40:1. Bile was spotted directly onto the TLC plate.

[5] = Preliminary study: effect of intraperitoneal paroxetine on hepatobiliary excretion of ^99mTc-PMT, SPECT dynamic imaging; settings: CYP2D-inhibited mice, probe ^99mTc-PMT
Experimental: SPECT imaging of ^123I-BMQ was performed to visualize the accumulation of radioactive metabolite for the purpose of assessing CYP2D activity. […] In a preliminary study, the effect of intraperitoneal administration of paroxetine on hepatobiliary excretion was investigated.

[6] = NADPH [+], pooled MLMs, inhibitor 10 μM
[7] = mouse bile after iv injection, gallbladder removed, TLC

c1ccc2c(c1)Sc1ccccc1N2CC1CN2CCC1CC2 (racemic) [mequitazine, 10-[(3RS)-1-azabicyclo [2.2.2]oct-3-ylmethyl]-10H-phenothiazine]
percentage of metabolites produced from ^125I-BMQ [1, 6]: 1.34% | inhibition at 15 min, 10 µM [1]: 94%

[125I]c1ccc(C[N+]23CCC(CC2)C(CN2c4ccccc4Sc4ccccc42)C3)cc1 (stereo not drawn) [^125I-BMQ, ^125I-4-iodobenzylmequitazine]
percentage of radioactive metabolite [2]: 3%–25% | Biological distribution, Blood ([3]; 2 min): 1.71 ± 0.40 %ID/g | Biological distribution, Brain ([3]; 2 min): 0.12 ± 0.02 %ID/g | Biological distribution, Gall bladder ([3]; 2 min): 4.16 ± 4.04 %ID/g | Biological distribution, Heart ([3]; 2 min): 0.78 ± 0.14 %ID/g | Biological distribution, Intestines ([3]; 2 min): 1.52 ± 0.17 %ID/organ | Biological distribution, Kidney ([3]; 2 min): 8.04 ± 0.39 %ID/g | Biological distribution, Liver ([3]; 2 min): 10.58 ± 0.30 %ID/g | Biological distribution, Lung ([3]; 2 min): 0.77 ± 0.12 %ID/g | Biological distribution, Pancreas ([3]; 2 min): 0.51 ± 0.05 %ID/g | Biological distribution, Spleen ([3]; 2 min): 0.46 ± 0.11 %ID/g | Biological distribution, Stomach ([3]; 2 min): 0.14 ± 0.01 %ID/organ | Biological distribution, Thyroid ([3]; 2 min): 1.19 ± 0.23 %ID/g | Biological distribution, Urine ([3]; 2 min): 0.10 ± 0.10 %ID/organ | Biological distribution, Blood ([3]; 10 min): 0.32 ± 0.07 %ID/g | Biological distribution, Brain ([3]; 10 min): 0.08 ± 0.02 %ID/g | Biological distribution, Gall bladder ([3]; 10 min): 13.28 ± 14.03 %ID/g | Biological distribution, Heart ([3]; 10 min): 0.47 ± 0.11 %ID/g | Biological distribution, Intestines ([3]; 10 min): 3.90 ± 1.55 %ID/organ | Biological distribution, Kidney ([3]; 10 min): 7.84 ± 0.50 %ID/g | Biological distribution, Liver ([3]; 10 min): 10.55 ± 0.48 %ID/g | Biological distribution, Lung ([3]; 10 min): 0.46 ± 0.28 %ID/g | Biological distribution, Pancreas ([3]; 10 min): 0.41 ± 0.03 %ID/g | Biological distribution, Spleen ([3]; 10 min): 0.26 ± 0.01 %ID/g | Biological distribution, Stomach ([3]; 10 min): 1.33 ± 1.08 %ID/organ | Biological distribution, Thyroid ([3]; 10 min): 0.57 ± 0.15 %ID/g | Biological distribution, Urine ([3]; 10 min): 0.06 ± 0.07 %ID/organ | Biological distribution, Blood ([3]; 30 min): 0.30 ± 0.16 %ID/g | Biological distribution, Brain ([3]; 30 min): 0.14 ± 0.10 %ID/g | Biological distribution, Gall bladder ([3]; 30 min): 24.43 ± 6.95 %ID/g | Biological distribution, Heart ([3]; 30 min): 0.52 ± 0.23 %ID/g | Biological distribution, Intestines ([3]; 30 min): 7.06 ± 1.89 %ID/organ | Biological distribution, Kidney ([3]; 30 min): 8.70 ± 1.50 %ID/g | Biological distribution, Liver ([3]; 30 min): 8.45 ± 0.99 %ID/g | Biological distribution, Lung ([3]; 30 min): 0.40 ± 0.20 %ID/g | Biological distribution, Pancreas ([3]; 30 min): 0.63 ± 0.25 %ID/g | Biological distribution, Spleen ([3]; 30 min): 0.24 ± 0.08 %ID/g | Biological distribution, Stomach ([3]; 30 min): 0.42 ± 0.36 %ID/organ | Biological distribution, Thyroid ([3]; 30 min): 1.16 ± 0.60 %ID/g | Biological distribution, Urine ([3]; 30 min): 0.30 ± 0.26 %ID/organ | Biological distribution, Blood ([3]; 60 min): 0.11 ± 0.01 %ID/g | Biological distribution, Brain ([3]; 60 min): 0.05 ± 0.01 %ID/g | Biological distribution, Gall bladder ([3]; 60 min): 23.28 ± 9.55 %ID/g | Biological distribution, Heart ([3]; 60 min): 1.00 ± 0.13 %ID/g | Biological distribution, Intestines ([3]; 60 min): 14.26 ± 1.26 %ID/organ | Biological distribution, Kidney ([3]; 60 min): 18.07 ± 2.42 %ID/g | Biological distribution, Liver ([3]; 60 min): 6.61 ± 0.90 %ID/g | Biological distribution, Lung ([3]; 60 min): 0.55 ± 0.13 %ID/g | Biological distribution, Pancreas ([3]; 60 min): 0.84 ± 0.29 %ID/g | Biological distribution, Spleen ([3]; 60 min): 0.86 ± 0.12 %ID/g | Biological distribution, Stomach ([3]; 60 min): 0.63 ± 0.41 %ID/organ | Biological distribution, Thyroid ([3]; 60 min): 1.03 ± 0.21 %ID/g | Biological distribution, Urine ([3]; 60 min): 0.47 ± 0.55 %ID/organ | Biological distribution, Blood ([3]; 120 min): 0.09 ± 0.01 %ID/g | Biological distribution, Brain ([3]; 120 min): 0.05 ± 0.01 %ID/g | Biological distribution, Gall bladder ([3]; 120 min): 28.93 ± 14.65 %ID/g | Biological distribution, Heart ([3]; 120 min): 0.92 ± 0.11 %ID/g | Biological distribution, Intestines ([3]; 120 min): 16.36 ± 1.01 %ID/organ | Biological distribution, Kidney ([3]; 120 min): 16.10 ± 2.91 %ID/g | Biological distribution, Liver ([3]; 120 min): 6.02 ± 1.23 %ID/g | Biological distribution, Lung ([3]; 120 min): 0.36 ± 0.06 %ID/g | Biological distribution, Pancreas ([3]; 120 min): 0.73 ± 0.26 %ID/g | Biological distribution, Spleen ([3]; 120 min): 0.83 ± 0.32 %ID/g | Biological distribution, Stomach ([3]; 120 min): 0.44 ± 0.07 %ID/organ | Biological distribution, Thyroid ([3]; 120 min): 1.14 ± 0.08 %ID/g | Biological distribution, Urine ([3]; 120 min): 0.11 ± 0.01 %ID/organ | radioactivity in the bile that was radioactive metabolite ([4]; gallbladder removed 60 min after the mice were injected): more than 90% | ^125I-BMQ (parent) in bile [4, 7]: no ^125I-BMQ was detected | percentage of metabolites of ^125I-BMQ in bile [4, 7]: > 90% | percentage of metabolites ([1]; NADPH [−], pooled MLMs, no inhibitor): 2.64%

CC(=O)N1CCN(c2ccc(OCC3COC(Cn4ccnc4)(c4ccc(Cl)cc4Cl)O3)cc2)CC1 (stereo not drawn) [ketoconazole]
percentage of ^125I-BMQ compared with NADPH [+] [1, 6]: slightly lower, but not significantly

Fc1ccc([C@@H]2CCNC[C@H]2COc2ccc3c(c2)OCO3)cc1 [paroxetine]
effect on biliary excretory function [5]: did not affect the biliary excretory function itself | percentage of metabolites produced from ^125I-BMQ [1, 6]: 12.5% | inhibition at 15 min, 10 µM [1]: 42%

C=C[C@H]1C[N@@]2CC[C@H]1C[C@@H]2[C@@H](O)c1ccnc2ccc(OC)cc12 [quinidine]
percentage of metabolites produced from ^125I-BMQ [1, 6]: 4.47% | inhibition at 15 min, 10 µM [1]: 80%
